Earlier results in patent US12419869B2, “Methods of treating multiple sclerosis” (Vanda Pharmaceuticals Inc., priority 2021, dated 2025).

Test system: adult subjects with relapsing MS
Settings: comparison values; cited from earlier work

Row | SMILES | ECG HR effect: time of nadir post-dose (other S1P modulators)
1 | CCCCCCCCc1ccc(CCC(N)(CO)CO)cc1 [Fingolimod] | ~6 h
2 | CCc1cc(/C(C)=N/OCc2ccc(C3CCCCC3)c(C(F)(F)F)c2)ccc1CN1CC(C(=O)O)C1 [Siponimod] | 3 to 4 h
